Source: patent publication US20230025280A1, “PH RESPONSIVE COMPOSITIONS, FORMULATIONS, AND METHODS OF IMAGING A TUMOR” (ONCONANO MEDICINE, INC, priority 2019, published 2023)
“Also recorded” adds a separate entry of the source.

Assays:
[1] = test system: occult lesions; experiment: Detection of occult disease by Compound 1 fluorescence; type: in vivo, human
Description: During surgery, intraoperative images of Compound 1 fluorescence were obtained from the primary tumors and metastatic lymph nodes as well as the surrounding tissue which include normal noncancerous tissues using NIR camera(s). This may be in vivo and/or ex vivo imaging of resected specimens. If the surgeon considered it safe, up to a maximum of 10 study related biopsies were taken from the regions with Compound 1 fluorescence that were otherwise not suspected as tumor clinically. Feasibility to image tumors with Compound 1 using multiple NIR cameras was evaluated.
Compound 1 fluorescence detected 5 additional occult lesions (1 patient with HNSCC and 4 patients with BC) otherwise missed by SOC preoperative surgery or during surgery or postoperative pathology. In 1 patient with HNSCC (ON1113) who had both a fluorescent and histopathological positive surgical margin, a satellite metastasis that was otherwise undetected by standard-of-care surgery was detected in the wound bed by Compound 1 fluorescence image-guided surgery.

[2] = Phase 1 safety assessment; type: in vivo, human
Method: Phase 1a was a dose-finding study performed in 5 cohorts of 3 patients each. The dose levels evaluated were […], and 1.2 mg/kg, in this sequence. Inter-cohort dose escalation took place after the last patient in the previous cohort completed the Day 10 safety assessment. Safety, PK, and imaging feasibility were evaluated in both the Phase 1a and 1b portions of the study. Patient safety is assessed during the study and for up to 10 days post-dose.

[3] = test system: breast cancer, HNSCC, prostate cancer, and ovarian cancer; experiment: Phase 2 imaging of tumors 3-6 hours post dosing with multiple NIR cameras; type: in vivo, human
Method: The study also utilized data collected from different NIR cameras and from multiple sites. All patients received a single I.V. dose of Compound 1, followed by routine surgery approximately 3-6 hours after infusion of Compound 1. Pre-excision and post-excision intraoperative and backtable visualization a tumor from a breast cancer patient (101-001; UPenn; VisionSense NIR camera) dosed with Compound 1 (2 mg/kg) 6±3 hr prior to surgery and an HNSCC cancer patient (102-007; UTSW; NOVADAQ SPY Elite NIR camera) dosed with Compound 1 (3 mg/kg) 6±3 hr prior to surgery are shown in FIG. 22. In each case, white light imaging of the pre- or post-excised tumor/specimen is juxtaposed with an overlay of the fluorescence observed and the white light image, indicating the presence of the tumor. Intraoperative/in vivo imaging of prostate cancer from two patients (102-008 and 102-009; UTSW; Da Vinci Firefly NIR camera with updated software/hardware) dosed with Compound 1 (3 mg/kg) 6±3 hr prior to excision of the tumor and the imaging of wound bed after excision of the tumor are shown in FIG. 23. In each case, white light imaging of the pre-excised tumor/specimen and the surgical wound bed are juxtaposed with images of the fluorescence observed. […] A tumor from a patient (101-005) with ovarian cancer dosed with Compound 1 (3 mg/kg, 6±3 hr) was imaged in vivo pre-excision as shown in FIG. 24. A white light image juxtaposed with an overlay of the fluorescence observed and the white light image, indicating the presence of the tumor.

[4] = test system: solid neoplasia; experiment: Tumor imaging in dogs with solid neoplasia; type: in vivo, dog
Method: (§1) Materials and methods: After evaluation and recruitment for the study, dog-patients underwent (A) pre-operation analysis to identify possible types of lesion, and (B) Compound 1 tracer was administrated at 0.5 to 2.0 mg/kg, 18-78 hours prior to surgery. During the surgery (C) intra-operative imaging was performed using a Hamamatsu PDE or custom NIR camera before and after tumor removal (or after limb amputations). Resected tissues were (D) imaged with a LI-COR Pearl Imaging station and tumor-to-normal-tissue ratios were calculated accordingly. The resected tissues were then (E) preserved for histopathology validation. Safety was assessed separately in terms of adverse effects through physical examinations, laboratory tests and the recording of adverse events from infusion through discharge from hospital.
(§2) Results: A summary of the data from spayed or neutered dog patients that were recruited for the study is shown below (Table 16). Results from a total of seven dogs of different breeds, aged 4-12 years, body weights ranging from 20.9-59.5 kg, and with a range of tumors ware presented, including instances where more than one tumor was present. Doses studied thus far ranged from 0.5-2.0 mg/kg. […] Both acute and chronic adverse effects were monitored from the time of injection through discharge of the animals from the hospital and follow-up appointments (to remove sutures) and noted.

[5] = Safety (adverse effects) in dog-patients; type: in vivo; details: 7 dogs; 0.5-2.0 mg/kg; injection through discharge
Method: as §1, §2

[6] = pH-dependent activation of Compound 1 in human plasma
[7] = test system: HNSCC specimen; experiment: Fluorescence microscopy after spraying Compound 1 onto freshly frozen tissue sections; parameters: species or system human; details: sprayed ex vivo onto freshly frozen HNSCC sections
Description: FIGS. 18A-18B describes fluorescence microscopy to confirm tumor-specific activation of Compound 1. […] DAPI was applied for nuclear staining (a) and Compound 1 for fluorescence visualization (b). […] RFU: relative fluorescence units.

[8] = test system: tumor positive surgical margins; experiment: Fluorescence detection of tumor positive surgical margins versus final histopathology; type: in vivo, human; details: 1.2 mg/kg; EC; per patient

In the case of “PEO90-140-b-P(DBA60-150-r-ICG0-3-r-AMA0-3) [Compound 1]”, the “Additional occult lesions detected” value ([1]; 1 patient with HNSCC and 4 patients with BC) is reported as 5, the “Other occult tumors detected by in vivo wound-bed imaging” value ([1]; missed by routine surgery, confirmed by pathology) is reported as 2 and the “Additional satellite lesions and second primaries detected ex vivo” value ([1]; pathology specimens) is reported as 3. The Safety profile ([2]; Phase 1a, 0.1 to 1.2 mg/kg) was “comparable at all the dose levels studied and did not raise any specific safety concerns”, the Tolerability ([2]; Phase 1b, 1.2 mg/kg) was “well tolerated” and the “Intraoperative fluorescence in prostate cancer” value ([3]; 3 mg/kg, 6±3 hr, Da Vinci Firefly camera) was “fluoresced intraoperatively”. The “Fluorescence in the surgical bed after prostate tumor excision” value ([3]; 3 mg/kg, 6±3 hr, negative margins confirmed through pathology) was “No fluorescence was detected”, the “Fluorescence in BC and HNSCC tumors” value ([3]; 3-5 hour dose schedule timing, SPY Elite camera) was “verified in all visible BC and HNSCC tumors” and the “Ability to image tumors 3-6 hours after I.V. injection” value ([3]; Phase 2, breast cancer, HNSCC, prostate cancer, ovarian cancer, 2-3 mg/kg) was “demonstrated”. The “Fluorescent signals in diseased tissues” value ([4]; 7 dogs, 0.5-2.0 mg/kg, 24 or 72 hr before surgery) was “fluorescent signals were observed where expected for diseased tissues”, the “Detection of occult disease” value ([4]; one dog-patient, metastatic popliteal lymph node) was “occult disease was identified; also recorded: identification of occult disease” and the Adverse effects [5] was “no adverse effects”. The “Fluorescence on adding increasing amounts of Compound 1” value ([6]; human plasma with HCl) was “increase in fluorescence”, the “Fluorescence on adding increasing amounts of Compound 1” value ([6]; human plasma, no acid) was “did not show any increase in fluorescence” and the “Fluorescence delineation on tissue sections” value [7] was “sharp delineation of fluorescence between the tumor and stromal tissue”. For the same substance, the “Surgical Margin by Fluorescence” value [8] was “Negative”.
